Where two headings read alike, the source gives them in different places.
How the values were obtained:
Assay in all cases: biochemical
Assay type in all cases: biochemical
[1] = molecular target: T1, 382 unique human kinases (Homo sapiens, UniProt Q96PN8); conditions: kinase TSSK3/STK22C, compound 10 uM; for remaining activity at 10 µM: read-out: % Enzyme Activity (relative to DMSO controls)
T1 construct: purchased Reaction Biology (HotSpot contract assay)
T1 sequence (Q96PN8 1-268): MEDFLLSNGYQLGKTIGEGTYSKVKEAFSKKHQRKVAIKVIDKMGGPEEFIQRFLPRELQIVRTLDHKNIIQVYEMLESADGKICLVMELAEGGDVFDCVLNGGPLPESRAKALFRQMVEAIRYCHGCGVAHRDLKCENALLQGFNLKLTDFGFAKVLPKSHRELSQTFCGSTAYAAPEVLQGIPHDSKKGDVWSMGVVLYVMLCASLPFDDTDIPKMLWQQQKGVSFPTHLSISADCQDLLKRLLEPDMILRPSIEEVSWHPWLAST

[2] = molecular target: T2, 382 unique human kinases (Homo sapiens, UniProt P08581, Y1230H); conditions: c-MET (Y1230H), 10 uM; for remaining activity at 10 µM: read-out: % Enzyme Activity (relative to DMSO controls)
T2 construct: purchased Reaction Biology (HotSpot contract assay)

[3] = molecular target: T3, 382 unique human kinases (Homo sapiens, UniProt P21802, K526E); conditions: for remaining activity at 10 µM: read-out: % Enzyme Activity (relative to DMSO controls)
T3 construct: purchased Reaction Biology (HotSpot contract assay)
T3 sequence (P21802 22-821 K526E): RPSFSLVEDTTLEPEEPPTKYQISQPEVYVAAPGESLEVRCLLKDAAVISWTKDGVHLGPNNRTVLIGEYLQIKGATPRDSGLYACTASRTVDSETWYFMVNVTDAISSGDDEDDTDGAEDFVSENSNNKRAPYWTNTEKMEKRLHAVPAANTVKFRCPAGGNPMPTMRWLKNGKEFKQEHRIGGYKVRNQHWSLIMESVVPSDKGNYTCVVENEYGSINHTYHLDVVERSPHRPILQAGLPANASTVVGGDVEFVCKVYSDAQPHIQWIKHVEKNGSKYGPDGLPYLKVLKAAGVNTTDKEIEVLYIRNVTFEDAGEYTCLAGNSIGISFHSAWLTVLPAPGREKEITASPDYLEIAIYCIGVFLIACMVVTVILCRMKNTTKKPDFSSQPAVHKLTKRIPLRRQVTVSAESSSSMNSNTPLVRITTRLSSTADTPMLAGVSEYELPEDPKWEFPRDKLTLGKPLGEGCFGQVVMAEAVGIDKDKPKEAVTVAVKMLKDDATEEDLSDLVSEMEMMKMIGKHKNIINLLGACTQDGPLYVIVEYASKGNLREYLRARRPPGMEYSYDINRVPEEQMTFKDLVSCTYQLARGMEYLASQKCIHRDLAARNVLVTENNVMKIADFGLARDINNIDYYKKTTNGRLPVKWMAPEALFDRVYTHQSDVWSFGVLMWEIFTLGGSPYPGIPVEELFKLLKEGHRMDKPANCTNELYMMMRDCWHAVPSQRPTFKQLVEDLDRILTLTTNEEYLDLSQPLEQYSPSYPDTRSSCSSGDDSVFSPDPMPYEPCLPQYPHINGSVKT

[4] = molecular target: T4, 382 unique human kinases (Homo sapiens, UniProt P21802); conditions: FGFR2, 10 uM; for remaining activity at 10 µM: read-out: % Enzyme Activity (relative to DMSO controls)
T4 construct: purchased Reaction Biology (HotSpot contract assay)
T4 sequence (P21802 22-821): as the sequence (P21802 22-821 K526E) above, with E505K counted along it

[5] = molecular target: T5, 382 unique human kinases (Homo sapiens, UniProt Q9BYT3); conditions: kinase STK33, compound 10 uM; for remaining activity at 10 µM: read-out: % Enzyme Activity (relative to DMSO controls)
T5 construct: purchased Reaction Biology (HotSpot contract assay)
T5 sequence (Q9BYT3 whole entry): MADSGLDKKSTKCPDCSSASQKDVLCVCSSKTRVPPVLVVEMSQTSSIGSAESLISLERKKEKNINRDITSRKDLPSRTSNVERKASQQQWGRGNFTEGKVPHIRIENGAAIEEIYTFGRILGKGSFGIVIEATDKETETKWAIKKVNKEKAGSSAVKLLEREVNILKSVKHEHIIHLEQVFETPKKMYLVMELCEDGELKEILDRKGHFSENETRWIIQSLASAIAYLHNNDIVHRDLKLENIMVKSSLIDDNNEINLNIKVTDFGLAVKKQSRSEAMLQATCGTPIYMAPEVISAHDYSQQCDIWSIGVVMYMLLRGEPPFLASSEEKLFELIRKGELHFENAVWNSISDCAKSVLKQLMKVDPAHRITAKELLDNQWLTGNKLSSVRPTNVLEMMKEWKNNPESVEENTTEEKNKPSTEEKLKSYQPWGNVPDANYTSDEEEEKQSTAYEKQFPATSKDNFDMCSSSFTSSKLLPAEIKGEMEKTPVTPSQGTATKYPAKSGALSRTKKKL

[6] = molecular target: T6, 382 unique human kinases (Homo sapiens, UniProt O14757); conditions: CHK1, 10 uM; for remaining activity at 10 µM: read-out: % Enzyme Activity (relative to DMSO controls)
T6 construct: purchased Reaction Biology (HotSpot contract assay)
T6 sequence (O14757 1-476): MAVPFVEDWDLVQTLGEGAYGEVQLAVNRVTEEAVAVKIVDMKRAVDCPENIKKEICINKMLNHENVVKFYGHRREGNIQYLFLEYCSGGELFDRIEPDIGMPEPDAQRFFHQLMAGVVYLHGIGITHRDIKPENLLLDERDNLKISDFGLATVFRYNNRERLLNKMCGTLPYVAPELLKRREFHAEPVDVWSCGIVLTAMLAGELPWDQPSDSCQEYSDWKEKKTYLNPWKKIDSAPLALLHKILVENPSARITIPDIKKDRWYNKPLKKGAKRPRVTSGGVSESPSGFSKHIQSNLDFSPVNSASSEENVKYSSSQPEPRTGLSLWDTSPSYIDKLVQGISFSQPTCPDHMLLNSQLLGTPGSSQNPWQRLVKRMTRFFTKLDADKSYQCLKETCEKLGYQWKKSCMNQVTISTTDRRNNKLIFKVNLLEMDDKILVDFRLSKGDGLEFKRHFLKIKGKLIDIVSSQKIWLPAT

[7] = molecular target: T7, 382 unique human kinases (Homo sapiens, UniProt O75460); conditions: kinase ERN1/IRE1, compound 10 uM; for remaining activity at 10 µM: read-out: % Enzyme Activity (relative to DMSO controls)
T7 construct: purchased Reaction Biology (HotSpot contract assay)

[8] = molecular target: T8, 382 unique human kinases (Homo sapiens, UniProt P22607, G697C); conditions: FGFR3 (G697C), 10 uM; for remaining activity at 10 µM: read-out: % Enzyme Activity (relative to DMSO controls)
T8 construct: purchased Reaction Biology (HotSpot contract assay)
T8 sequence (P22607 23-806 G697C): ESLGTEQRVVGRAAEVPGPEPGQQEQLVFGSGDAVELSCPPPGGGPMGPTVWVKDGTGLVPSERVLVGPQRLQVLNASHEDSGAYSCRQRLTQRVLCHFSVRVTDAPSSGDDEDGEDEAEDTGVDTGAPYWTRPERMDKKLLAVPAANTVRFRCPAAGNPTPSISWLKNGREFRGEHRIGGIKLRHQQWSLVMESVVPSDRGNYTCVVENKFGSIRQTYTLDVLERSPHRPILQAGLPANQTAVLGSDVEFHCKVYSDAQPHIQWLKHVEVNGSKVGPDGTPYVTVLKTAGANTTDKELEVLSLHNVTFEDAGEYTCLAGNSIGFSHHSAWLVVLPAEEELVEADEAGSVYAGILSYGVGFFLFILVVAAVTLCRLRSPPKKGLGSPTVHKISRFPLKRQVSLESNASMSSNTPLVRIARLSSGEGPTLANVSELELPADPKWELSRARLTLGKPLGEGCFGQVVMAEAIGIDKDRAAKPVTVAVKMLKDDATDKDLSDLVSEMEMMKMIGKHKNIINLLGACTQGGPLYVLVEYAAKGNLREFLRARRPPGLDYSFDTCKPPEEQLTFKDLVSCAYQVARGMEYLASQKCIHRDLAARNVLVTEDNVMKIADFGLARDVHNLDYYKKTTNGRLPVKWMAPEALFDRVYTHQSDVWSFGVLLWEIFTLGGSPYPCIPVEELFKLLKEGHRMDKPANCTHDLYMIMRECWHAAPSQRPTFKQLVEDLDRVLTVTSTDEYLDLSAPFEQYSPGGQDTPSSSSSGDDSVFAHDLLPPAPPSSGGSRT

[9] = molecular target: T9, 382 unique human kinases (Homo sapiens, UniProt Q13131); conditions: for remaining activity at 10 µM: read-out: % Enzyme Activity (relative to DMSO controls)
T9 construct: purchased Reaction Biology (HotSpot contract assay)
T9 sequence (Q13131 whole entry): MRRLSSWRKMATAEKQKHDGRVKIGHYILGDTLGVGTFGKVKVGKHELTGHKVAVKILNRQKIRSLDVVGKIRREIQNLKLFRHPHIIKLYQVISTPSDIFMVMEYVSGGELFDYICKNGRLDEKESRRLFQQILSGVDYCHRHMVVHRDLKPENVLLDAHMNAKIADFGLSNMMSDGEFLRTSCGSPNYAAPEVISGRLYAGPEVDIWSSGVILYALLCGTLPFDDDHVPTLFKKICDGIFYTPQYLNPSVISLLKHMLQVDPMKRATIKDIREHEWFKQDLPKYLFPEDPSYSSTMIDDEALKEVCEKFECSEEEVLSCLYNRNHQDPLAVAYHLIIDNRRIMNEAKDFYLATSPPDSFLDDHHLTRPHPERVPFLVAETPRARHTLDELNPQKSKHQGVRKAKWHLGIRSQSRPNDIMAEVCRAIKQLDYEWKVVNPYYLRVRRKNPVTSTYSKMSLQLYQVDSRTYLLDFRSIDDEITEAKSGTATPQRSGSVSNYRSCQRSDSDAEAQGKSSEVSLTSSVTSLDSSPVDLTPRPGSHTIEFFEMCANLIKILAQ

[10] = molecular target: T10, 382 unique human kinases (Homo sapiens, UniProt Q6P2M8); conditions: kinase CAMK1b, compound 10 uM; for remaining activity at 10 µM: read-out: % Enzyme Activity (relative to DMSO controls)
T10 construct: purchased Reaction Biology (HotSpot contract assay)

[11] = molecular target: T11, 382 unique human kinases (Homo sapiens, UniProt P07949); conditions: kinase RET, compound 10 uM; for remaining activity at 10 µM: read-out: % Enzyme Activity (relative to DMSO controls)
T11 construct: purchased Reaction Biology (HotSpot contract assay)
T11 sequence (P07949 29-1114): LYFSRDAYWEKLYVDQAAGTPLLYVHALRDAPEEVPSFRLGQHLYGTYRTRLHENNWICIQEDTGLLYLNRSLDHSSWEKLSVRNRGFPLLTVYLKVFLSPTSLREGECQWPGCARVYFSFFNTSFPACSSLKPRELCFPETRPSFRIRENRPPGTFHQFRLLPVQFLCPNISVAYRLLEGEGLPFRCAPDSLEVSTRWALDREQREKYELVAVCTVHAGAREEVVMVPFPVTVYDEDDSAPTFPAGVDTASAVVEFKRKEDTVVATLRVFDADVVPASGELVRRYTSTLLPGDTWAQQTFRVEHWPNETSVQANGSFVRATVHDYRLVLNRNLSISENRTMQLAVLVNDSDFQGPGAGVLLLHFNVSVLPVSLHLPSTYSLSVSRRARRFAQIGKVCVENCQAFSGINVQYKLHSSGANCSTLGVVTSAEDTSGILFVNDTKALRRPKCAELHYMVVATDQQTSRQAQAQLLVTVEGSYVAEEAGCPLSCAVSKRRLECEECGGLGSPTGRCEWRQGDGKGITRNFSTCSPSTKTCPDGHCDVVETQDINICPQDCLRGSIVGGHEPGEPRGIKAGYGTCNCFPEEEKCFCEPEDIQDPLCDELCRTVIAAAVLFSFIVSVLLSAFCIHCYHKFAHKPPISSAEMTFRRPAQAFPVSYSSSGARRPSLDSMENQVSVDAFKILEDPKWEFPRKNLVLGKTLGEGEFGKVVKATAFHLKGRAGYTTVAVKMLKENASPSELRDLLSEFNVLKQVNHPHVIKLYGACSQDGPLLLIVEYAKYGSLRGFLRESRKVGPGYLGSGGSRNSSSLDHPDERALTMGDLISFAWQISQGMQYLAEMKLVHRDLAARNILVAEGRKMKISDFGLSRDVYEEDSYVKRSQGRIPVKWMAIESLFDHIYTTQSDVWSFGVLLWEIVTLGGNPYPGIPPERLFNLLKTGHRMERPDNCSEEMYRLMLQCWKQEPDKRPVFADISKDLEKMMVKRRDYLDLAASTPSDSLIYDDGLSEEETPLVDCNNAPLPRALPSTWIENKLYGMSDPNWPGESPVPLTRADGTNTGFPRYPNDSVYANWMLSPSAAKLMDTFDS

[12] = molecular target: T12, 382 unique human kinases (Homo sapiens, UniProt P15056, V600E); conditions: BRAF (V599E), 10 uM; for remaining activity at 10 µM: read-out: % Enzyme Activity (relative to DMSO controls)
T12 construct: purchased Reaction Biology (HotSpot contract assay)

[13] = molecular target: T13, 382 unique human kinases (Homo sapiens, UniProt Q13555); conditions: CAMK2g, 10 uM; for remaining activity at 10 µM: read-out: % Enzyme Activity (relative to DMSO controls)
T13 construct: purchased Reaction Biology (HotSpot contract assay)

[14] = molecular target: T14, 382 unique human kinases (Homo sapiens, UniProt P00519, E255V); conditions: ABL1 (E255V), [ATP] 10 µM, compound 10 uM; for remaining activity at 10 µM: read-out: % Enzyme Activity (relative to DMSO controls)
T14 construct: purchased Reaction Biology (HotSpot contract assay)
T14 sequence (P00519 whole entry E255V): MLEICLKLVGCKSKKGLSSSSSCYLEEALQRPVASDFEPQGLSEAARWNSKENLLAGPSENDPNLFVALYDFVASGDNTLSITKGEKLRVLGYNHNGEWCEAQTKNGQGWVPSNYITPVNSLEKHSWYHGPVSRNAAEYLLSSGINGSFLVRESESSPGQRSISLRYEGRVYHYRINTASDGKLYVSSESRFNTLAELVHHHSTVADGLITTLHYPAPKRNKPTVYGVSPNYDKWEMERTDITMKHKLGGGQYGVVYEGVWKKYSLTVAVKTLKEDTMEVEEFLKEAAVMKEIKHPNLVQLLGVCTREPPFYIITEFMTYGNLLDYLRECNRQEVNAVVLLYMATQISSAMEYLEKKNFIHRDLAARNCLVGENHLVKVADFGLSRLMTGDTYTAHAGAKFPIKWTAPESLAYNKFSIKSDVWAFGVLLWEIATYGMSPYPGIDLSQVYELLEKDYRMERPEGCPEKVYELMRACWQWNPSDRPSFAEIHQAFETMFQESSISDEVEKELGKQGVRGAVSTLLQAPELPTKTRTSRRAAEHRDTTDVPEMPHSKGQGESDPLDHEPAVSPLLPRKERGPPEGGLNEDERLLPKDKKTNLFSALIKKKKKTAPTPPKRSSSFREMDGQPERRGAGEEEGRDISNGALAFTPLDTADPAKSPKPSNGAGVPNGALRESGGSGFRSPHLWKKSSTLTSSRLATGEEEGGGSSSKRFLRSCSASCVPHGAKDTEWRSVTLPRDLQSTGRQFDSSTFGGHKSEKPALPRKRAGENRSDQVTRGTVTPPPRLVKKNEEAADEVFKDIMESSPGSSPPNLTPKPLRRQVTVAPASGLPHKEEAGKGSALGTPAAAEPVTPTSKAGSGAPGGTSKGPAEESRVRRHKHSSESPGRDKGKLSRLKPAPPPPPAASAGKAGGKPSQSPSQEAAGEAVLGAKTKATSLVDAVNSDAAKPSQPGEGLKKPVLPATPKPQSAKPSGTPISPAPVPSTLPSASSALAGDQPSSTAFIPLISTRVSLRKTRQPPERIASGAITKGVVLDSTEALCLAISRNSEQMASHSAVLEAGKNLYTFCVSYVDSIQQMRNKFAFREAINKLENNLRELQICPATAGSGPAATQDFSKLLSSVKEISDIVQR

[15] = molecular target: T15, 382 unique human kinases (Homo sapiens, UniProt P00533, DEL752-759); conditions: EGFR (d752-759), 10 uM; for remaining activity at 10 µM: read-out: % Enzyme Activity (relative to DMSO controls)
T15 construct: purchased Reaction Biology (HotSpot contract assay)

[16] = molecular target: T16, 382 unique human kinases (Homo sapiens, UniProt P42681); conditions: TXK, [ATP] 30 µM, compound 10 uM; for remaining activity at 10 µM: read-out: % Enzyme Activity (relative to DMSO controls)
T16 construct: purchased Reaction Biology (HotSpot contract assay)
T16 sequence (P42681 1-527): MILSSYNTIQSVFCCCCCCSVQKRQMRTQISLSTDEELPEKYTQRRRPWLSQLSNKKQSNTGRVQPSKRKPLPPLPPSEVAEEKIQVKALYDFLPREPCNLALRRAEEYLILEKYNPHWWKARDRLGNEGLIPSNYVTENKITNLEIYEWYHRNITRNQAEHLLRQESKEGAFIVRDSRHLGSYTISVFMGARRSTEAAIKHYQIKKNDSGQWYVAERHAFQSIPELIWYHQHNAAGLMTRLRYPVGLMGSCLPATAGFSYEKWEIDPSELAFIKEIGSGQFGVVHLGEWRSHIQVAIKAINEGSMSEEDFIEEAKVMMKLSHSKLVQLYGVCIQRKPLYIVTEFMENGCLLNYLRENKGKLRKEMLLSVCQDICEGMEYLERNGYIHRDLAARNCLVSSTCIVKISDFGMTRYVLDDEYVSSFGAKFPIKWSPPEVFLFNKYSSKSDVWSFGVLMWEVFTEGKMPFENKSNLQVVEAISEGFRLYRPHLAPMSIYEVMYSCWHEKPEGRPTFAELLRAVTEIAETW

[17] = kinase AMPK(A1/B1/G3), compound 10 uM

Row | Structure (SMILES) | remaining activity at 10 µM [1] [%] | remaining activity at 10 µM [2] [%] | remaining activity at 10 µM [3] [%] | remaining activity at 10 µM [4] [%] | remaining activity at 10 µM [5] [%] | remaining activity at 10 µM [6] [%] | remaining activity at 10 µM [7] [%] | remaining activity at 10 µM [8] [%] | remaining activity at 10 µM ([9]; AMPK(A1/B1/G1), 10 uM) [%] | remaining activity at 10 µM ([9]; AMPK(A1/B1/G2), 10 uM) [%] | remaining activity at 10 µM ([9]; AMPK(A1/B2/G1), 10 uM) [%] | remaining activity at 10 µM [9, 17] [%] | remaining activity at 10 µM [10] [%] | remaining activity at 10 µM [11] [%] | remaining activity at 10 µM [12] [%] | remaining activity at 10 µM [13] [%] | remaining activity at 10 µM [14] [%] | remaining activity at 10 µM [15] [%] | remaining activity at 10 µM [16] [%] | other results
1 | CC(C)c1cc(-c2n[nH]c(=O)n2-c2ccc3c(ccn3C)c2)c(O)cc1O [Ganetespib (STA9090)] | 93.1 | 108 | 68.8 | 68.3 | 81.4 | 74.7 | 103 | 61.9 | 79.7 | 73.2 | 70.8 | 86.1 | 83.4 | 84.5 | – | – | – | – | – | –
2 | CC(C)c1cc(-c2n[nH]c(=O)n2-c2ccc3c(ccn3C)c2)c(O)cc1O [Ganetespib] | – | – | – | – | – | – | – | – | – | – | – | – | – | – | 110 | 98.8 | 9.72 | 103 | 21.4 | –
3 | CCNC(=O)c1noc(-c2cc(C(C)C)c(O)cc2O)c1-c1ccc(CN2CCOCC2)cc1 [Luminespib (AUY-922)] | 147 | 79.7 | 102 | 99.8 | 104 | 106 | 82.5 | 104 | 101 | 107 | 97.6 | 119 | 94.9 | 94.4 | – | – | – | – | – | % Enzyme Activity (relative to DMSO controls) [1]: 144.69%; % Enzyme Activity (relative to DMSO controls) [2]: 78.17%; % Enzyme Activity (relative to DMSO controls) [3]: 99.92%; % Enzyme Activity (relative to DMSO controls) [4]: 98.90%; % Enzyme Activity (relative to DMSO controls) [5]: 103.02%; % Enzyme Activity (relative to DMSO controls) [6]: 105.20%; % Enzyme Activity (relative to DMSO controls) [7]: 82.42%; % Enzyme Activity (relative to DMSO controls) [8]: 102.74%; % Enzyme Activity (relative to DMSO controls) ([9]; AMPK(A1/B1/G1), 10 uM): 99.40%; % Enzyme Activity (relative to DMSO controls) ([9]; AMPK(A1/B1/G2), 10 uM): 104.49%; % Enzyme Activity (relative to DMSO controls) ([9]; AMPK(A1/B2/G1), 10 uM): 96.58%; % Enzyme Activity (relative to DMSO controls) [9, 17]: 118.21%; % Enzyme Activity (relative to DMSO controls) [10]: 91.57%; % Enzyme Activity (relative to DMSO controls) [11]: 94.03%
4 | CCNC(=O)c1noc(-c2cc(C(C)C)c(O)cc2O)c1-c1ccc(CN2CCOCC2)cc1 [Luminespib] | – | – | – | – | – | – | – | – | – | – | – | – | – | – | 98.8 | 106 | 9.81 | 99.4 | 88.1 | % Enzyme Activity (relative to DMSO controls) [12]: 98.13%; % Enzyme Activity (relative to DMSO controls) [13]: 105.88%; % Enzyme Activity (relative to DMSO controls) [14]: 9.69%; % Enzyme Activity (relative to DMSO controls) [15]: 98.01%; % Enzyme Activity (relative to DMSO controls) [16]: 87.82%

Source: article PMC8550792, “Evolution of kinase polypharmacology across HSP90 drug discovery” (Cell Chemical Biology, 2021)
